According to PMC6017193, “Structure-Based Discovery of a Series of 5H-Pyrrolo[2,3-b]pyrazine FGFR Kinase Inhibitors” (Molecules : A Journal of Synthetic Chemistry and Natural …, 2018):

Legend:
FGFR1 = biological target: T1, FGFR1 (Homo sapiens, UniProt P11362); experiment: ELISA kinase assay, FGFR1 enzymatic activity; type: biochemical
T1 construct: purchased Millipore
Procedure: (§1) The effects of compounds on the activities of indicated (FGFR1 and c-Met) kinases were determined using enzyme-linked immunosorbent assays (ELISAs) with purified recombinant proteins. Briefly, 20 μg/mL poly (Glu, Tyr)4:1 (Sigma, St. Louis, MO, USA) was precoated in 96-well plates as a substrate. A 50-μL aliquot of 10 μmol/L ATP solution diluted in kinase reaction buffer (50 mmol/L HEPES (pH 7.4), 50 mmol/L MgCl2, 0.5 mmol/L MnCl2, 0.2 mmol/L Na3VO4, and 1 mmol/L DTT) was added to each well; 1 μL of various concentrations of compounds diluted in 1% DMSO (v/v) (Sigma) were then added to each reaction well. DMSO (1%, v/v) was used as the negative control. The kinase reaction was initiated by the addition of purified tyrosine kinase proteins FGFR1 (Millipore, Darmstadt, Germany) or c-Met (Millipore) diluted in 49 μL of kinase reaction buffer. After incubation for 60 min at 37 °C, the plate was washed three times with phosphate-buffered saline (PBS) containing 0.1% Tween 20 (T-PBS). Anti-phosphotyrosine (PY99) antibody (Sanra Cruz, Dallas, TX, USA) (100 μL; 1:500, diluted in 5 mg/mL bovine serum albumin (BSA) T-PBS) was then added. After a 30-min incubation at 37 °C, the plate was washed three times, and 100 μL of horseradish peroxidase-conjugated goat anti-mouse IgG (Calbiochem, Shanghai, China) (1:2000, diluted in 5 mg/mL BSA T-PBS) was added. The plate was then incubated at 37 °C for 30 min, and washed three times. A 100-μL aliquot of a solution containing 0.03% H2O2 and 2 mg/mL o-phenylenediamine in 0.1 mol/L citrate buffer (pH 5.5) was added. The reaction was terminated by the addition of 50 μL of 2 mol/L H2SO4 as the color changed, and the plate was analyzed using a multi-well spectrophotometer (SpectraMAX 190, Molecular Devices, Palo Alto, CA, USA) at 490 nm. The inhibition rate (%) was calculated using the following equation:IR = [1 − (A490/A490control)] × 100%.(1) where IR, A490, and A490control are the inhibition rate, the absorbance value of the tested compound at 490 nm, and the absorbance value of the negative control compound at 490 nm, respectively. The IC50 values were calculated from the inhibition curves in two separate experiments.

FGFR2 = FGFR2 (Homo sapiens, UniProt P21802); experiment: Kinase panel profiling; type: biochemical
Sequence of FGFR2 (P21802 22-821): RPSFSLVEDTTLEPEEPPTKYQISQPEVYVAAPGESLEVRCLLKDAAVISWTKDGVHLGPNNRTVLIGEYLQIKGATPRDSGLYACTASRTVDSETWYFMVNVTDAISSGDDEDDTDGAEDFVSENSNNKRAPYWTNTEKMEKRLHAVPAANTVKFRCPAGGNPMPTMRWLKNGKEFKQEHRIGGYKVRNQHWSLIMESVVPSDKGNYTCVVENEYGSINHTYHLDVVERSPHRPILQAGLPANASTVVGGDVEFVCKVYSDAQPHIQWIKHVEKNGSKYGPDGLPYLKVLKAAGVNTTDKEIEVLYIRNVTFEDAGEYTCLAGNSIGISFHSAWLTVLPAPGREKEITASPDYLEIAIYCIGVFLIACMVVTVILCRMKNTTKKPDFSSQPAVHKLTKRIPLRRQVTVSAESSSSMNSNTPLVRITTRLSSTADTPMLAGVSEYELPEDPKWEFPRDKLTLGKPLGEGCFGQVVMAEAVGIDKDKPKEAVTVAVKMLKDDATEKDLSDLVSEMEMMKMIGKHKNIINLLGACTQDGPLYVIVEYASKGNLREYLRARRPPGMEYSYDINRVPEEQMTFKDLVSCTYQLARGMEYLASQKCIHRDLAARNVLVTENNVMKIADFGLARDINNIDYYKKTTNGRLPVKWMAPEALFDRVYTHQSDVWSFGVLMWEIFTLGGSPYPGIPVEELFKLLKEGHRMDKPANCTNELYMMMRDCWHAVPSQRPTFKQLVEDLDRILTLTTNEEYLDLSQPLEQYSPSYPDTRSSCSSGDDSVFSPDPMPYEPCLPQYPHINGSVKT

Src = Src (Homo sapiens, UniProt P12931); experiment: Kinase panel profiling; type: biochemical
Sequence of Src (P12931 whole entry, species assumed): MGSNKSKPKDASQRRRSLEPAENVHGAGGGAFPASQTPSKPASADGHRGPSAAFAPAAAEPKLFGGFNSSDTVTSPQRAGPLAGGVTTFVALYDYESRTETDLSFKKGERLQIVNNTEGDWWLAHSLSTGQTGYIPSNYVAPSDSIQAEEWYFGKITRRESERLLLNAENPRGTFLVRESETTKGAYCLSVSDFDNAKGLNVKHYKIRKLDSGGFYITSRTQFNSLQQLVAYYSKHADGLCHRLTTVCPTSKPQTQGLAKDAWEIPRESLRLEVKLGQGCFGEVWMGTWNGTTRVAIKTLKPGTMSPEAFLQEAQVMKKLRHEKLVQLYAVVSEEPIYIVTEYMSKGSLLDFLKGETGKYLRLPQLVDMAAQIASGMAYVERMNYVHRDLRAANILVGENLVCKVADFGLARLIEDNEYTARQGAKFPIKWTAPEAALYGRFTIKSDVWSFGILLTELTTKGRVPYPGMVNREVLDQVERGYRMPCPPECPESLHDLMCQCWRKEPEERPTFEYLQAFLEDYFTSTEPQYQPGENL

c-Met = biological target: T2, c-Met (Homo sapiens, UniProt P08581); experiment: Kinase panel profiling (ELISA kinase assay); type: biochemical
T2 construct: purchased Millipore
T2 sequence (P08581 25-1390): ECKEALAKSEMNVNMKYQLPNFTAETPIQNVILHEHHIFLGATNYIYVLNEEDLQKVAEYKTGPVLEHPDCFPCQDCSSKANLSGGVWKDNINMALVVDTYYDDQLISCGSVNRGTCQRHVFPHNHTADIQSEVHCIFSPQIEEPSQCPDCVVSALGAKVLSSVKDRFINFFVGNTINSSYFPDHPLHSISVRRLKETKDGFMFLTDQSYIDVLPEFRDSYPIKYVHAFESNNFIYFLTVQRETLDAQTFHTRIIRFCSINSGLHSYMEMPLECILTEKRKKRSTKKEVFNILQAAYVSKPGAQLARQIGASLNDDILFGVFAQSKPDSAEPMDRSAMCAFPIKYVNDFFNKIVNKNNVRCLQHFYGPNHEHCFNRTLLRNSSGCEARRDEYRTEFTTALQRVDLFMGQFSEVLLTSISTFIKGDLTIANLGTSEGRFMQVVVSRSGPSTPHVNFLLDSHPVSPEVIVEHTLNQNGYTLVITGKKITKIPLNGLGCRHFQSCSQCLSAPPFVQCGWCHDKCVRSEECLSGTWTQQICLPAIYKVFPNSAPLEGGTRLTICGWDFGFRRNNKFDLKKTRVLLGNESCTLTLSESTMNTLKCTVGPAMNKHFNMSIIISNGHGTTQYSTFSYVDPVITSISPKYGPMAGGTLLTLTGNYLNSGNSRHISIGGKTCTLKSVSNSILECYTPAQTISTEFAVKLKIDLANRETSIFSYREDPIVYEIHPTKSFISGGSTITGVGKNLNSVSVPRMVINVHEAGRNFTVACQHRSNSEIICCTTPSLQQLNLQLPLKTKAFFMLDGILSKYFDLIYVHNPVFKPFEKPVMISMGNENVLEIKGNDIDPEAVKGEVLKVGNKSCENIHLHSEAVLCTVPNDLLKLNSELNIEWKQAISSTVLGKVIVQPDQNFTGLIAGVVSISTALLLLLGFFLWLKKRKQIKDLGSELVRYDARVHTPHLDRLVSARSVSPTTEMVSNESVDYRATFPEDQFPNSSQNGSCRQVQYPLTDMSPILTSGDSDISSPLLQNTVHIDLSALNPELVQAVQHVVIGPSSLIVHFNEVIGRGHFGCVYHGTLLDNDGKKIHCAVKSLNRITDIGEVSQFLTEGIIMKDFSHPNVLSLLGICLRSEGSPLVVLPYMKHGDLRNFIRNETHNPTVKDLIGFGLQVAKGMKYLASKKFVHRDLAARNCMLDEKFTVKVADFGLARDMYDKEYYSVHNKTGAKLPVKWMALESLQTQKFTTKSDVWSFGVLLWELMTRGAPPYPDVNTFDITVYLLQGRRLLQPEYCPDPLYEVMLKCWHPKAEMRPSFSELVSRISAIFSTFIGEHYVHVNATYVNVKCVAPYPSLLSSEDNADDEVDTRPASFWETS
Procedure: as §1

IGF1R = IGF1R (Homo sapiens, UniProt P08069); experiment: Kinase panel profiling; type: biochemical
Sequence of IGF1R (P08069 31-1367, species assumed): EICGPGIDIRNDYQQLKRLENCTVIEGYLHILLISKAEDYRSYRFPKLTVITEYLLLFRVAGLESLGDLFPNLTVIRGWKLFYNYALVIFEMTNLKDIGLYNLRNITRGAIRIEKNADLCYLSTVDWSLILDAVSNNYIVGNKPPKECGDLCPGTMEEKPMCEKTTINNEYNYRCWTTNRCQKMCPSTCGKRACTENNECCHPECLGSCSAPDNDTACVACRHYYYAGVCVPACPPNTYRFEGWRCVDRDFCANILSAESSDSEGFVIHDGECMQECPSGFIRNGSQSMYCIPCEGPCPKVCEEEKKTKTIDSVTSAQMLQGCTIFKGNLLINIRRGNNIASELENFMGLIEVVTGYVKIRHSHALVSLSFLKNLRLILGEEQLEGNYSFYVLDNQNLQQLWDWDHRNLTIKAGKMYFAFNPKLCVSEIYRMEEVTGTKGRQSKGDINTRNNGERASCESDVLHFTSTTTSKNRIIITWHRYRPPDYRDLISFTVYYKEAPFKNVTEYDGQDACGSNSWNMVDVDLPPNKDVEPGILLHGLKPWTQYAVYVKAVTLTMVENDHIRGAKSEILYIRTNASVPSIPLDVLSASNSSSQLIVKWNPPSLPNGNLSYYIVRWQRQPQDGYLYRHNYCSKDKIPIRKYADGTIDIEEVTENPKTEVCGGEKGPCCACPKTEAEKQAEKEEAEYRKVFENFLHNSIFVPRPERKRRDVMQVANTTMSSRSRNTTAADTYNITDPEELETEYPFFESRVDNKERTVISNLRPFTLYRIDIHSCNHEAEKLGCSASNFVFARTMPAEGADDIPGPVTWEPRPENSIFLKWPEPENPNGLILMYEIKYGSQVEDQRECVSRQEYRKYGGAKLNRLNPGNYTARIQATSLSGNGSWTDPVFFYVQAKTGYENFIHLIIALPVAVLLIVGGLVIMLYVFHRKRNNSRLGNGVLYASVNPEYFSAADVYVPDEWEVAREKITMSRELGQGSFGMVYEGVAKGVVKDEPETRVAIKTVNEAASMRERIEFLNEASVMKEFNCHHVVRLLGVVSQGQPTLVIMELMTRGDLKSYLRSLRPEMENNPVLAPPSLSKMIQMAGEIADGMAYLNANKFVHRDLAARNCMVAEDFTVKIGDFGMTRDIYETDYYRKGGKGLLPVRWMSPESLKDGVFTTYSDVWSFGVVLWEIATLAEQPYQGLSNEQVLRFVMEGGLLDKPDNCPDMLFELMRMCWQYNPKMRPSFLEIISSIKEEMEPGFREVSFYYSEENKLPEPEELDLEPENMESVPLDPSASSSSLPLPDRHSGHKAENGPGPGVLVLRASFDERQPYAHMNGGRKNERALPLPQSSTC

PDGFR-α = PDGFR-α (Homo sapiens, UniProt P16234); experiment: Kinase panel profiling; type: biochemical
Sequence of PDGFR-α (P16234 24-1089, species assumed): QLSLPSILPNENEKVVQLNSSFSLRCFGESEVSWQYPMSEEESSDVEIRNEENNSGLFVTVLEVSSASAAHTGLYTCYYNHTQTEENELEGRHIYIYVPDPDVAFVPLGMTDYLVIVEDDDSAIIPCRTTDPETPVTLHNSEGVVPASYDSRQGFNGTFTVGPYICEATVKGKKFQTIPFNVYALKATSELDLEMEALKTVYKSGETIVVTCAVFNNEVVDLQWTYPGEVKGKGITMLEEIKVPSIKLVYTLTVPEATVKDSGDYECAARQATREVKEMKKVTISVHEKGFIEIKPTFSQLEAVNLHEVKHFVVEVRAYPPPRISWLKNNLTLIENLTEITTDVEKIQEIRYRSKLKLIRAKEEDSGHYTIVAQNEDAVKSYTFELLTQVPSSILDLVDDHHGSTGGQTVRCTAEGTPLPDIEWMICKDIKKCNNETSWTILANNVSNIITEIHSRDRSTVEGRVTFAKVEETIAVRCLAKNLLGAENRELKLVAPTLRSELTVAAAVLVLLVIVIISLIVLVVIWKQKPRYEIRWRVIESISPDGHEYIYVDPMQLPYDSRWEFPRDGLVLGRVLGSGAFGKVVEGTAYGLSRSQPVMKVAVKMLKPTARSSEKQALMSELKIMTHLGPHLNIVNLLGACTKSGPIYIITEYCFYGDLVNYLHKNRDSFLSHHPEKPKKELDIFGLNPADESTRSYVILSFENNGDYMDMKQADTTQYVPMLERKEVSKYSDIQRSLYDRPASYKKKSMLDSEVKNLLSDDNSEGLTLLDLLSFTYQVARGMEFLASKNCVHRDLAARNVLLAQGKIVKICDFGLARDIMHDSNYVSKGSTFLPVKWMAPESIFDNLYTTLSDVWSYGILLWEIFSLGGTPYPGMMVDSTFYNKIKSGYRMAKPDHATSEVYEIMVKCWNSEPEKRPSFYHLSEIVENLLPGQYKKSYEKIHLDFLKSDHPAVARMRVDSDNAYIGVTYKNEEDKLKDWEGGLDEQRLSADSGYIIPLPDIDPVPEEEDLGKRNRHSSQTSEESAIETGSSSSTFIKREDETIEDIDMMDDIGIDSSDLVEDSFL

AXL = biological target: T3, AXL (Homo sapiens, UniProt P30530); experiment: Kinase panel profiling; type: biochemical
T3 sequence (P30530 26-894): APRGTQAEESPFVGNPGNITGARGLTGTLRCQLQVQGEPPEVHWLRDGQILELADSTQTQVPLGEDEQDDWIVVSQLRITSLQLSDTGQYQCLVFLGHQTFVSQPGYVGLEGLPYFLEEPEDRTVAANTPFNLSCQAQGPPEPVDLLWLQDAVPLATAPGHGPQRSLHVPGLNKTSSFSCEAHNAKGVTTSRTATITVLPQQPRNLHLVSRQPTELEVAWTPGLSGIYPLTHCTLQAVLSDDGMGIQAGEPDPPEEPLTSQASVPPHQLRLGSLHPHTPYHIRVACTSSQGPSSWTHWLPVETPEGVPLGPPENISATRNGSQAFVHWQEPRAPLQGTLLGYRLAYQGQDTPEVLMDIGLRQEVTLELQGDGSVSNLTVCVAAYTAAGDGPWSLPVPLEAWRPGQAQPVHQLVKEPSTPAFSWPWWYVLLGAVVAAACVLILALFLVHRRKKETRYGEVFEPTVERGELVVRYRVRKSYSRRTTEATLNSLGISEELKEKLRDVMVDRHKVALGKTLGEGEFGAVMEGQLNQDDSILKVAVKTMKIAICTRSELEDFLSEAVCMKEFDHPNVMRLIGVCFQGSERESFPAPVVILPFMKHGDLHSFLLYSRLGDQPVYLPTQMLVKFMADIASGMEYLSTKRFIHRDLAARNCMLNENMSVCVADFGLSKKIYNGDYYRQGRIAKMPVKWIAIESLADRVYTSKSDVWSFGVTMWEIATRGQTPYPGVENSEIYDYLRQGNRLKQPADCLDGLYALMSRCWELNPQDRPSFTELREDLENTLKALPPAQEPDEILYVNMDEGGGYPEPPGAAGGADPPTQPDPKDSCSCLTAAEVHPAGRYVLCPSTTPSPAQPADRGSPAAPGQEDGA

[1] = Human liver microsome stability test; type: in vitro ADME; conditions: human liver microsomes, pH 7.4, 1 μM test compound, read-out: HLM (human liver microsome stability test, clearance)
Procedure: Microsomes (Human microsome: Xenotech, Lot No.H0610; Rat microsome: Xenotech, Lot No. R1000) (0.5 mg/mL) were preincubated with 1 μM of test compound for 5 min at 37 °C in 0.1 M phosphate buffer (pH 7.4) with 1 mmol Ethylenediaminetetraacetic acid (EDTA), and 5 mmol MgCl2. The reactions were initiated by adding prewarmed cofactors (1 mmol NADPH). After 0-min, 5-min, 10-min, and 30-min incubations at 37 °C, the reactions were stopped by adding an equal volume of cold acetonitrile. The samples were vortexed for 10 min, and then centrifuged at 10,000× g for 10 min. Supernatants were analyzed by LC/MS/MS for the amount of the parent compound remaining, and the corresponding loss of the parent compound was also determined by LC/MS/MS.

PDGFR-β = PDGFR-β (Homo sapiens, UniProt P09619); experiment: Kinase panel profiling; type: biochemical

For `O=S(=O)(c1cn(CCF)cn1)n1ccc2ncc(-c3cn[nH]c3)nc21` [Compound 13, 5-((1-(2-fluoroethyl)-1H-imidazol-4-yl)sulfonyl)-3-(1H-pyrazol-4-yl)-5H-pyrrolo[2,3-b]pyrazine], the inhibition at 0.01 µM (FGFR1; 0.01 μM (10 nM), mean of two separate experiments) was over 90%, the inhibition at 0.1 µM (FGFR1; 0.1 μM, mean of two separate experiments) was 91.7% and the inhibition at 1 µM (FGFR1; 1 μM, mean of two separate experiments) was 100%. The IC50 (FGFR1; mean ± SD from two separate experiments) was 0.6 ± 0.2 nM, the inhibition at 0.01 µM (FGFR2; 10 nM) was 60.9% and the inhibition at 0.1 µM (FGFR2; 100 nM) was 92%. The inhibition at 1 µM (FGFR2; 1000 nM) was 97.2%, the inhibition at 0.01 µM (Src; 10 nM) was 0% and the inhibition at 0.1 µM (Src; 100 nM) was 0%. It also gave an inhibition at 1 µM (Src; 1000 nM) of 0%, an inhibition at 0.01 µM (c-Met; 10 nM) of 3.9% and an inhibition at 0.1 µM (c-Met; 100 nM) of 3.9%. For the same compound, the “Kinase Inhibition (%) c-Met” value (c-Met; 1000 nM (1 μM)) was “nearly no inhibition”, the inhibition at 1 µM (c-Met; 1000 nM (1 μM)) was 4.6% and the inhibition at 0.01 µM (IGF1R; 10 nM) was -3.8%. It also gave an inhibition at 0.1 µM (IGF1R; 100 nM) of 3%, an inhibition at 1 µM (IGF1R; 1000 nM) of 11.8% and an inhibition at 0.01 µM (PDGFR-α; 10 nM) of 21.9%. It also gave an inhibition at 0.1 µM (PDGFR-α; 100 nM) of 20.9%, an inhibition at 1 µM (PDGFR-α; 1000 nM) of 23.2% and an inhibition at 0.01 µM (AXL; 10 nM) of 1.1%. For the same compound, the inhibition at 0.1 µM (AXL; 100 nM) was 2.9%, the inhibition at 1 µM (AXL; 1000 nM) was -5.5% and the microsomal CLint at 1 μM [1] was 1 µL/min/mg. It also gave an inhibition at 0.01 µM (PDGFR-β; 10 nM) of 12.8%, an inhibition at 0.1 µM (PDGFR-β; 100 nM) of 30.1% and an inhibition at 1 µM (PDGFR-β; 1000 nM) of 58.6%.
